Laboratory results as given in PubChem BioAssay (NCI).
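Each compound was tested at five concentrations against cells in 96-well plates for 48 hours. Definition used: TGI = concentration required for complete inhibition of growth.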

Tests used:
Experiment in all cases: NCI tumour cell line growth inhibition, 48 h
SK-MEL-5 melanoma = system: SK-MEL-5 melanoma
UO-31 renal = system: UO-31 renal
UACC-62 melanoma = system: UACC-62 melanoma
SF-295 CNS = system: SF-295 CNS
NCI-H23 lung = system: NCI-H23 lung
IGROV1 ovarian = system: IGROV1 ovarian
SK-MEL-28 melanoma = system: SK-MEL-28 melanoma
SNB-19 CNS = system: SNB-19 CNS
A549 NSCLC = system: A549 NSCLC
LOX IMVI melanoma = system: LOX IMVI melanoma
LXFL 529 NSCLC = system: LXFL 529 NSCLC
CCRF-CEM leukemia = system: CCRF-CEM leukemia
EKVX NSCLC = system: EKVX NSCLC
M14 melanoma = system: M14 melanoma
HL-60(TB) leukemia = system: HL-60(TB) leukemia
SNB-78 CNS = system: SNB-78 CNS
HCT-116 colon = system: HCT-116 colon
OVCAR-3 ovarian = system: OVCAR-3 ovarian
HOP-92 NSCLC = system: HOP-92 NSCLC
COLO 205 colon = system: COLO 205 colon
KM12 colon = system: KM12 colon
NCI-H226 lung = system: NCI-H226 lung
SK-MEL-2 melanoma = system: SK-MEL-2 melanoma
SNB-75 CNS = system: SNB-75 CNS
MOLT-4 leukemia = system: MOLT-4 leukemia
RXF-631 renal = system: RXF-631 renal
U251 CNS = system: U251 CNS
DLD-1 colon = system: DLD-1 colon
M19-MEL melanoma = system: M19-MEL melanoma
NCI-H522 lung = system: NCI-H522 lung
DMS 273 small cell lung = system: DMS 273 small cell lung
TK-10 renal = system: TK-10 renal
RPMI-8226 leukemia = system: RPMI-8226 leukemia
HCT-15 colon = system: HCT-15 colon
786-0 renal = system: 786-0 renal
OVCAR-4 ovarian = system: OVCAR-4 ovarian
K-562 leukemia = system: K-562 leukemia
SK-OV-3 ovarian = system: SK-OV-3 ovarian
SF-539 CNS = system: SF-539 CNS
SN12C renal = system: SN12C renal
HOP-18 NSCLC = system: HOP-18 NSCLC
HT29 colon = system: HT29 colon
OVCAR-8 ovarian = system: OVCAR-8 ovarian
HCC-2998 colon = system: HCC-2998 colon
SW-620 colon = system: SW-620 colon
KM20L2 colon = system: KM20L2 colon
ACHN renal = system: ACHN renal
DMS 114 small cell lung = system: DMS 114 small cell lung
OVCAR-5 ovarian = system: OVCAR-5 ovarian
NCI-H460 lung = system: NCI-H460 lung
SF-268 CNS = system: SF-268 CNS
SR leukemia = system: SR leukemia
UACC-257 melanoma = system: UACC-257 melanoma
HOP-62 NSCLC = system: HOP-62 NSCLC
XF 498 CNS = system: XF 498 CNS
A498 renal = system: A498 renal
CAKI-1 renal = system: CAKI-1 renal

`c1ccc(-c2csc3ncn4cnnc4c23)cc1` showed a TGI (SK-MEL-5 melanoma) greater than 100 µM, a TGI (UO-31 renal) greater than 100 µM and a TGI (UACC-62 melanoma) greater than 100 µM. The TGI (SF-295 CNS) was greater than 100 µM, the TGI (NCI-H23 lung) was greater than 100 µM and the TGI (IGROV1 ovarian) was greater than 100 µM. For the same compound, the TGI (SK-MEL-28 melanoma) was greater than 100 µM, the TGI (SNB-19 CNS) was greater than 100 µM and the TGI (A549 NSCLC) was greater than 100 µM. The TGI (LOX IMVI melanoma) was greater than 100 µM, the TGI (LXFL 529 NSCLC) was greater than 100 µM and the TGI (CCRF-CEM leukemia) was greater than 100 µM. For the same compound, the TGI (EKVX NSCLC) was greater than 100 µM, the TGI (M14 melanoma) was greater than 100 µM and the TGI (HL-60(TB) leukemia) was greater than 100 µM. The TGI (SNB-78 CNS) was greater than 100 µM, the TGI (HCT-116 colon) was greater than 100 µM and the TGI (OVCAR-3 ovarian) was greater than 100 µM. It also gave a TGI (HOP-92 NSCLC) of 84.7 µM, a TGI (COLO 205 colon) greater than 100 µM and a TGI (KM12 colon) greater than 100 µM. The TGI (NCI-H226 lung) was greater than 100 µM, the TGI (SK-MEL-2 melanoma) was greater than 100 µM and the TGI (SNB-75 CNS) was 89.3 µM. For the same compound, the TGI (MOLT-4 leukemia) was greater than 100 µM, the TGI (RXF-631 renal) was greater than 100 µM and the TGI (U251 CNS) was greater than 100 µM. For the same compound, the TGI (DLD-1 colon) was greater than 100 µM, the TGI (M19-MEL melanoma) was greater than 100 µM and the TGI (NCI-H522 lung) was greater than 100 µM. The TGI (DMS 273 small cell lung) was greater than 100 µM, the TGI (TK-10 renal) was greater than 100 µM and the TGI (RPMI-8226 leukemia) was greater than 100 µM. It also gave a TGI (HCT-15 colon) greater than 100 µM, a TGI (786-0 renal) greater than 100 µM and a TGI (OVCAR-4 ovarian) greater than 100 µM. For the same compound, the TGI (K-562 leukemia) was greater than 100 µM, the TGI (SK-OV-3 ovarian) was greater than 100 µM and the TGI (SF-539 CNS) was greater than 100 µM. It also gave a TGI (SN12C renal) greater than 100 µM, a TGI (HOP-18 NSCLC) greater than 100 µM and a TGI (HT29 colon) greater than 100 µM. For the same compound, the TGI (OVCAR-8 ovarian) was greater than 100 µM, the TGI (HCC-2998 colon) was greater than 100 µM and the TGI (SW-620 colon) was greater than 100 µM. It also gave a TGI (KM20L2 colon) greater than 100 µM, a TGI (ACHN renal) greater than 100 µM and a TGI (DMS 114 small cell lung) greater than 100 µM.

Compound `C/C(N=NS(=O)(=O)c1ccc(C)cc1)=C1\C=CC=CN1O` has a TGI (SK-MEL-5 melanoma) greater than 100 µM, a TGI (UO-31 renal) greater than 100 µM and a TGI (UACC-62 melanoma) greater than 100 µM. The TGI (SF-295 CNS) was greater than 100 µM, the TGI (NCI-H23 lung) was greater than 100 µM and the TGI (OVCAR-5 ovarian) was greater than 100 µM. It also gave a TGI (NCI-H460 lung) greater than 100 µM, a TGI (IGROV1 ovarian) greater than 100 µM and a TGI (SK-MEL-28 melanoma) greater than 100 µM. It also gave a TGI (SNB-19 CNS) greater than 100 µM, a TGI (A549 NSCLC) greater than 100 µM and a TGI (LXFL 529 NSCLC) greater than 100 µM. It also gave a TGI (CCRF-CEM leukemia) greater than 100 µM, a TGI (EKVX NSCLC) greater than 100 µM and a TGI (M14 melanoma) greater than 100 µM. For the same compound, the TGI (SF-268 CNS) was greater than 100 µM, the TGI (HL-60(TB) leukemia) was greater than 100 µM and the TGI (SR leukemia) was greater than 100 µM. The TGI (UACC-257 melanoma) was greater than 100 µM, the TGI (SNB-78 CNS) was greater than 100 µM and the TGI (HOP-62 NSCLC) was greater than 100 µM. For the same compound, the TGI (HCT-116 colon) was greater than 100 µM, the TGI (OVCAR-3 ovarian) was greater than 100 µM and the TGI (HOP-92 NSCLC) was greater than 100 µM. The TGI (XF 498 CNS) was greater than 100 µM, the TGI (KM12 colon) was greater than 100 µM and the TGI (SNB-75 CNS) was greater than 100 µM. For the same compound, the TGI (MOLT-4 leukemia) was greater than 100 µM, the TGI (RXF-631 renal) was greater than 100 µM and the TGI (U251 CNS) was greater than 100 µM. The TGI (DLD-1 colon) was greater than 100 µM, the TGI (M19-MEL melanoma) was greater than 100 µM and the TGI (NCI-H522 lung) was greater than 100 µM. The TGI (DMS 273 small cell lung) was greater than 100 µM, the TGI (TK-10 renal) was greater than 100 µM and the TGI (RPMI-8226 leukemia) was greater than 100 µM. It also gave a TGI (HCT-15 colon) greater than 100 µM, a TGI (786-0 renal) greater than 100 µM and a TGI (OVCAR-4 ovarian) greater than 100 µM. It also gave a TGI (A498 renal) greater than 100 µM, a TGI (SK-OV-3 ovarian) greater than 100 µM and a TGI (CAKI-1 renal) greater than 100 µM. For the same compound, the TGI (SF-539 CNS) was greater than 100 µM, the TGI (SN12C renal) was greater than 100 µM and the TGI (HOP-18 NSCLC) was greater than 100 µM. For the same compound, the TGI (HT29 colon) was greater than 100 µM, the TGI (OVCAR-8 ovarian) was greater than 100 µM and the TGI (HCC-2998 colon) was greater than 100 µM. The TGI (SW-620 colon) was greater than 100 µM, the TGI (KM20L2 colon) was greater than 100 µM and the TGI (ACHN renal) was greater than 100 µM. For the same compound, the TGI (DMS 114 small cell lung) was greater than 100 µM.
